Data: patent US20120244567A1, “HUMAN EMBRYONIC STEM CELLS FOR HIGH THROUGHOUT DRUG SCREENING” (BUCK INSTITUTE FOR RESEARCH ON AGING, priority 2009, published 2012)
Where a name gives a salt, the structure may show the parent alone. Read-outs that look alike come from different tables or passages of the source.

How the values were obtained:
[1] = system: hESCs and hESC-derived NSCs; assay: Comparative ATP screening on hESCs and hESC-derived NSCs (ratio ESC/NSC or NSC/ESC); set-up: hit class in primary screen / ESC/NSC: dose or concentration left out as unconfirmed; conditions: for hit class in primary screen: NINDS primary screen, ATP relative to DMSO controls
Description: Hits were defined based on the ability of a compound to affect ATP levels relative to DMSO controls on each plate.

hESC-derived NSCs = assay: ATP assay in hESC-derived NSCs (96-well, primary screen and retest); type: cell-based, human; set-up: cytotoxicity: dose or concentration left out as unconfirmed; toxicity to NSCs (reduced ATP concentrations) / ATP levels in NSC population: unit of the concentration uncertain; conditions: for toxicity to NSCs (reduced ATP concentrations): 1 (unit uncertain), 2.5 (unit uncertain) and 10 (unit uncertain), treated NSCs versus untreated NSCs, untreated and treated hESCs
Method: EBs were then cultured for additional 2-3 days in suspension in neural induction media containing DMEM/F12 with Glutamax, 1×NEAA, 1×N2 and FGF2 (20 ng/ml) prior to attachment on cell culture plates. […] To obtain a pure population of NSCs, rosettes were manually isolated and dissociated into single cells using Accutase. The NSCs population was expanded in Neurobasal media containing 1×NEAA, 1×L-Glutamine (2 mM), 1×B27, LIF and FGF2 20 ng/ml.
Media was changed every day for hESCs and every other day for NSCs and additionally changed prior to drug treatment. The cells were treated with compounds from the NINDS library diluted in […] of either ESC or NSC media to a final concentration of 2.5 mM in 0.01% DMSO. […] For all sampling, ESC and NSC plates were processed in parallel for one drug or control condition at a time.
For ATP measurements, the media was removed, cells were washed 1× in milliQ water and reconstituted in […] ATP-Lite Mammalian Lysis Buffer and shaken for 5 minutes. Two […] aliquots of lysed cells were replated onto separate 96 well plates for later protein measurements.
To identify compounds that are toxic to hESCs, hESC-derived NSCs, or both, we screened 720 FDA-approved drugs of the NINDS collection by testing the toxicity of each drug at a dose of 2.5 mM. For endpoint measurement of cell death caused by drug toxicity, we used a widely accepted ATP assay that measures changes in ATP level as an indicator of cellular response to cell death. In this assay, total ATP content per well was measured and normalized to the total cellular protein.
Three concentrations of each compound (1 mM, 2.5 mM and 10 mM) were used in the retest.

[2] = Prestwick screening data, group: Toxic To ESCs (and not NSCs)
[3] = Prestwick screening data, group: Toxic to both but (5x) more toxic to ESCs
[4] = NINDS screening data, […], ATP assay, 48 hours
[5] = Prestwick screening data, group: Toxic To NSC (and not ESCs)
[6] = Homo sapiens, NINDS primary screen, 48 hours, read-out: NSC ATP values below the control mean

Compound: COc1ccc(CN(CCN(C)C)c2ccccn2)cc1 [Pyrilamine Maleate]
- NSC/ESC [1, 2]: 1.934

Compound: CC(=O)O[C@H]1C(=O)[C@@]2(C)[C@H]([C@H](OC(=O)c3ccccc3)[C@]3(O)C[C@H](OC(=O)[C@H](O)[C@@H](NC(=O)c4ccccc4)c4ccccc4)C(C)=C1C3(C)C)[C@]1(OC(C)=O)CO[C@@H]1C[C@@H]2O [Paclitaxel]
- NSC/ESC [1, 3]: 5.325

Compound: COc1cccc2c1C(=O)c1c(O)c3c(c(O)c1C2=O)C[C@@](O)(C(=O)CO)C[C@@H]3O[C@H]1C[C@H](N)[C@H](O)[C@H](C)O1 [Doxorubicin Hydrochloride]
- NSC/ESC [1, 3]: 8.906

Compound: CNc1ccc2oc(C[C@H]3O[C@@]4(CC[C@H]3C)O[C@H]([C@H](C)C(=O)c3ccc[nH]3)[C@H](C)C[C@H]4C)nc2c1C(=O)O [Calcimycin]
- ESC/NSC [1, 4]: 377.6

Compound: CC[N+]1(C)[C@@H]2CC[C@H]1CC(OC(=O)[C@@H]1CC[C@@](C(=O)OC3C[C@H]4CC[C@@H](C3)[N+]4(C)CC)(c3ccccc3)c3ccccc31)C2.[Cl-].[Cl-] (stereo partly drawn) [Beta-Belladonnine Dichloroethylate]
- NSC/ESC [1, 2]: 2.717

Compound: CCc1nc(N)nc(N)c1-c1ccc(Cl)cc1 [Pyrimethamine]
- ESC/NSC [1, 5]: 2.009

Compound: COC(=O)Nc1nc2ccc(SC(C)C)cc2[nH]1 [Methiazole]
- ESC/NSC [1, 5]: 3.01

Compound: CO[C@H]1C[C@H](O[C@@H]2/C(C)=C/C[C@@H]3C[C@@H](C[C@]4(CC[C@H](C)[C@@H](C5CCCCC5)O4)O3)OC(=O)[C@@H]3C=C(C)/C(=N/O)[C@H]4OC/C(=C\C=C\[C@@H]2C)[C@]43O)O[C@@H](C)[C@@H]1O [Selamectin]
- hit class in primary screen [1]: NSC Killers
- cytotoxicity at 2500 µM (hESC-derived NSCs; Homo sapiens, NINDS primary screen, 2.5 mM, 48 hours, read-out: NSC ATP values below the control mean): ≥ 15%
- toxicity to NSCs (reduced ATP concentrations) (hESC-derived NSCs; retest): dose-dependent specific toxicity
- effect on NSC survival among dose responsive compounds (hESC-derived NSCs; retest, FIG. 2 panel B): most dramatic effect on NSC survival

Compound: CCC(=O)O[C@]1(C(=O)SCF)[C@H](C)C[C@H]2[C@@H]3C[C@H](F)C4=CC(=O)C=C[C@]4(C)[C@@]3(F)[C@@H](O)C[C@@]21C [Fluticasone Propionate]
- NSC/ESC [1, 2]: 1.954

Compound: CC(=O)Oc1ccc(C(c2ccc(OC(C)=O)cc2)c2ccccn2)cc1 [Bisacodyl]
- ESC/NSC [1, 5]: 2.701

Compound: O=c1[nH]c(=O)n([C@H]2C[C@H](O)[C@@H](CO)O2)cc1C(F)(F)F [Trifluridine]
- ESC/NSC [1, 5]: 2.955

Compound: CCCCC(CC)CN1CN(CC(CC)CCCC)CC(C)(N)C1 (stereo not shown) [Hexetidine]
- hit class in primary screen [1]: NSC Killers
- cytotoxicity (hESC-derived NSCs; [6]): ≥ 15%

Compound: [O-][n+]1ccccc1[S-].[O-][n+]1ccccc1[S-].[Zn+2] [Pyrithione Zinc]
- ESC/NSC [1]: 116.4

Compound: Fc1ccc(C(OCCN2CCN(CCCc3ccccc3)CC2)c2ccc(F)cc2)cc1 [Gbr 12909 Dihydrochloride]
- NSC/ESC [1, 2]: 1.754

Compound: CN1CCN(CC(=O)N2c3ccccc3C(=O)Nc3cccnc32)CC1 [pirenzepine HCL]
- hit class in primary screen [1]: NSC Killers
- cytotoxicity (hESC-derived NSCs; [6]): ≥ 15%
- toxicity to NSCs (reduced ATP concentrations) (hESC-derived NSCs; retest): dose-dependent specific toxicity

Compound: CC(C)(C)CC(C)(C)c1ccc(O)c(Cc2ccc(Cl)cc2Cl)c1 [Clofoctol]
- hit class in primary screen [1]: NSC Killers
- cytotoxicity (hESC-derived NSCs; [6]): ≥ 15%
- toxicity to NSCs (reduced ATP concentrations) (hESC-derived NSCs; retest): dose-dependent specific toxicity

Compound: CC[C@@]1(O)C(=O)OCc2c1cc1n(c2=O)Cc2cc3ccccc3nc2-1 [Camptothecine (S,+)]
- NSC/ESC [1, 3]: 14.46

Compound: Cc1ccnc(NS(=O)(=O)c2ccc(N)cc2)n1 [Sulfamerazine]
- NSC/ESC [1, 2]: 2.003

Compound: COC1=CC(=O)C[C@@H](C)[C@]12Oc1c(Cl)c(OC)cc(OC)c1C2=O [griseofulvin]
- hit class in primary screen [1]: NSC Killers
- cytotoxicity (hESC-derived NSCs; [6]): ≥ 15%

Compound: CCN(CC)C(=S)SSC(=S)N(CC)CC [Disulfiram]
- NSC/ESC [1, 2]: 10.3

Compound: C[C@H]1CC[C@]2(NC1)O[C@H]1C[C@H]3[C@@H]4CC[C@H]5C[C@@H](O[C@@H]6O[C@H](CO)[C@H](O[C@@H]7O[C@H](CO)[C@@H](O)[C@H](O[C@@H]8OC[C@@H](O)[C@H](O)[C@H]8O)[C@H]7O[C@@H]7O[C@H](CO)[C@@H](O)[C@H](O)[C@H]7O)[C@H](O)[C@H]6O)CC[C@]5(C)[C@H]4CC[C@]3(C)[C@H]1[C@@H]2C [Tomatine]
- ESC/NSC ([1]; Prestwick screening data, […]): 9.242

Compound: CN1Cc2c(ccc3c2OCO3)C2C(O)Cc3cc4c(cc3C21)OCO4 (stereo not drawn) [Chelidonine (+)]
- ESC/NSC [1, 5]: 1.999

Compound: CC1=CC(=O)c2ccccc2C1=O [Menadione]
- hit class in primary screen [1]: NSC Killers
- cytotoxicity (hESC-derived NSCs; [6]): ≥ 15%
- toxicity to NSCs (reduced ATP concentrations) (hESC-derived NSCs; retest): dose-dependent specific toxicity

Compound: Clofilium Tosylate
- NSC/ESC [1, 2]: 2.184

Compound: C[n+]1cc2c3c(ccc2c2ccc4cc5c(cc4c21)OCO5)OCO3 [Sanguinarine]
- ESC/NSC ([1]; Prestwick screening data, […]): 102.6

Compound: Cl.Cl.c1ccc2c3c([nH]c2c1)C1C2CCC(C4CCCNC42)N1CC3 (stereo not shown) [Nitrarine Dihydrochloride]
- NSC/ESC [1, 2]: 1.949

Compound: COc1ccc(C[C@H](N)C(=O)N[C@H]2[C@@H](O)[C@H](n3cnc4c(N(C)C)ncnc43)O[C@@H]2CO)cc1 [Puromycin Dihydrochloride]
- NSC/ESC [1, 3]: 10.84

Compound: CCCCCCCCCCCCCCCC[n+]1ccccc1 [Cetylpyridinium Chloride]
- ESC/NSC [1]: 109.4

Compound: (−)-Levobunolol Hydrochloride
- NSC/ESC [1, 2]: 1.689

Compound: CN(Cc1cnc2nc(N)nc(N)c2n1)c1ccc(C(=O)N[C@@H](CCC(=O)O)C(=O)O)cc1 (racemic) [Amethopterin (R,S)]
- ESC/NSC [1, 5]: 6.45

Compound: C[n+]1cc2c3c(ccc2c2ccc4cc5c(cc4c21)OCO5)OCO3 [Sanguinarine Nitrate]
- ESC/NSC [1, 4]: 8.446

Compound: COc1ccc2c(c1OC)CN1CCc3cc4c(cc3C1C2)OCO4 (stereo not shown) [(D,L)-Tetrahydroberberine]
- NSC/ESC [1, 2]: 2.336

Compound: CC[C@@H](C(=O)[C@@H](C)[C@@H](O)[C@H](C)CCc1ccc(C)c(O)c1C(=O)O)[C@H]1O[C@](CC)([C@H]2CC[C@](O)(CC)[C@H](C)O2)C[C@@H]1C [Lasalocid Sodium Salt]
- ESC/NSC [1, 5]: 2.052

Compound: C1CCC(C(CC2CCCCN2)C2CCCCC2)CC1.O=C(O)/C=C\C(=O)O (stereo not shown) [Perhexilline Maleate]
- hit class in primary screen [1]: NSC Killers

Compound: C[C@@]12C(=O)OC(=O)[C@]1(C)[C@H]1CC[C@@H]2O1 [Cantharidin]
- ESC/NSC ([1]; Prestwick screening data, group: Toxic to both but (>5x) more toxic to NSCs): 6.171

Compound: COc1cc(-c2ccc(=O)[nH]n2)ccc1OC(F)F [Zardaverine]
- NSC/ESC [1, 2]: 1.976

Compound: CC1(C)O[C@@H]2C[C@H]3[C@@H]4C[C@H](F)C5=CC(=O)CC[C@]5(C)[C@H]4[C@@H](O)C[C@]3(C)[C@]2(C(=O)CO)O1 [Flurandrenolide]
- NSC/ESC [1, 2]: 2.308

Compound: CCCCCCCCCCCCCCCC[N+](C)(C)C.[Br-] [Cetrimonium Bromide]
- ESC/NSC [1, 4]: 5.402
